Where two headings read alike, the source gives them in different places. Marks after values point to notes of the source that are not given here.
Assays:
[1] = test system: CYP2C19-expressing TK6 cells; experiment: TK and HPRT gene mutation assays in CYP2C19-expressing TK6 cells; format: cell-based, human; settings: 4-h treatment
hamster V79 cells = settings: without exogenous activation; ref Brambilla et al., 1989; cited from earlier work
TK6 cells [2] = settings: up to 10 mM; 1% rat liver S9; ref Liviac et al., 2011; cited from earlier work
TK6 cells [3] = settings: 2% Aroclor-1254-induced rat liver S9; ref Bernacki et al., 2016; cited from earlier work
TK6 cells [4] = experiment: TK and HPRT gene mutation assays in TK6 cells with hamster liver S9
TK6 cells [5] = experiment: In vitro micronucleus assay in TK6 cells; settings: for %MN frequency with hamster liver S9: 4-h (2% S9) and 24-h (0.4% S9) treatments
[6] = test system: TK6 cells transduced with CYP3A4; settings: up to 10 μM; 24 h
2D HepaRG cells = settings: 24 h; 2D cultures
[7] = test system: primary human hepatocytes; settings: 10 μM to 100 μM; 20-h exposure; ref Robbiano et al., 1991; cited from earlier work
TA100 = settings: for BMD50L / BMD50U: CES 0.5
[8] = test system: TK6 cells transduced with CYP2C19; settings: 24 h without exogenous metabolism
tester strains = settings: preliminary study; these concentrations and above
[9] = test system: TK6 cells transduced with CYP2C8; settings: up to 10 μM; 24 h
primary rat hepatocytes = settings: 10 μM to 100 μM; 20-h exposure; ref Robbiano et al., 1991; cited from earlier work
TA1537 = settings: 0–200 μg/plate
[10] = test system: tester strains TA1535, TA1537, TA1538, TA92, TA98, and TA100; settings: maximum concentration 1.4 μmol/plate (404 μg/plate); with and without Aroclor 1254-induced rat liver S9; ref Raisfeld-Danse and Chen, 1983; cited from earlier work
[11] = test system: TK6 cells transduced with CYP2D6; settings: up to 10 μM; 24 h
TA1535 = settings: for BMD50L / BMD50U: CES 0.5
HepG2 cells = settings: 24 h without exogenous metabolism, additional 16 h
[12] = test system: tester strains TA98 or TA100; settings: 1 mg/plate; Aroclor 1254-induced rat liver S9; ref Zhang et al., 1983; cited from earlier work
[13] = test system: hepatocytes of Sprague-Dawley rats; settings: single dose of 1000 mg/kg; ref Martelli et al., 1994; cited from earlier work
TA98 = settings: for BMD50L / BMD50U: CES 0.5
[14] = test system: TK6 cells transduced with CYP2A6; settings: up to 10 μM; 24 h
[15] = test system: TK6 cells transduced with CYP2E1; settings: up to 10 μM; 24 h
3D HepaRG spheroids = settings: 24 h; 3D cultures
[16] = test system: CYP2C19-expressing TK6 cells; settings: 4- and 24-h exposures
WP2 uvrA (pKM101) = settings: 0–200 μg/plate
[17] = test system: CYP2C19-expressing HepG2 cells; settings: 24 h without exogenous metabolism, additional 16 h
TK6 cells [18] = experiment: In vitro MultiFlow DNA damage assay in TK6 cells
[19] = 100 μM, 4-h treatment, TK6 cells with 1% hamster liver S9
[20] = 0–200 μg/plate, S9 activation required
[21] = 10% hamster liver S9, preincubation 30 min
[22] = 10% hamster liver S9, preincubation 60 min
[23] = 10% rat liver S9, preincubation 30 min
[24] = 10% rat liver S9, preincubation 60 min
[25] = 30% hamster liver S9, preincubation 30 min
[26] = 30% hamster liver S9, preincubation 60 min
[27] = 30% rat liver S9, preincubation 30 min
[28] = 30% rat liver S9, preincubation 60 min
[29] = without S9, preincubation 30 min
[30] = without S9, preincubation 60 min
[31] = TA98, 10% hamster liver S9, preincubation 30 min
[32] = TA98, 10% hamster liver S9, preincubation 60 min
[33] = TA98, 10% rat liver S9, preincubation 30 min
[34] = TA98, 10% rat liver S9, preincubation 60 min
[35] = TA98, 30% hamster liver S9, preincubation 30 min
[36] = TA98, 30% hamster liver S9, preincubation 60 min
[37] = TA98, 30% rat liver S9, preincubation 30 min
[38] = TA98, 30% rat liver S9, preincubation 60 min
[39] = TA98, without S9, preincubation 30 min
[40] = TA98, without S9, preincubation 60 min
[41] = 50 μM, 4-h treatment, TK6 cells with 1% hamster liver S9
[42] = 200 μM, 4-h treatment, TK6 cells with 1% hamster liver S9
[43] = 300 μM, 4-h treatment, TK6 cells with 1% hamster liver S9

With `O=[N+]([O-])c1cc[n+]([O-])c2ccccc12` [4NQO, reference compound] the “HPRT gene MF” value ([1]; 0.1 μg/mL (positive control)) was 34.1^c × 10^−6, the “Relative survival (%)” value ([1]; 0.1 μg/mL (positive control)) was 59.9% and the “TK gene MF” value ([1]; 0.1 μg/mL (positive control)) was 69.2^c × 10^−6.
In the case of `CN(N=O)C1=Nc2ccc(Cl)cc2C(c2ccccc2)=[N+]([O-])C1` [N-nitroso chlordiazepoxide], the HPRT mutations (hamster V79 cells) is given as “induce concentration-dependent HPRT mutations”.
For `CCN(CC)N=O` [NDEA, N-nitrosodiethylamine, reference compound], the MN formation (TK6 cells [2]) is listed as “did not induce MN formation”, the “Genotoxic or cytotoxic responses” value (TK6 cells [3]) is listed as “failed to biotransform NDEA to produce any genotoxic or cytotoxic responses” and the “HPRT gene MF” value (TK6 cells [4]; [19]) is listed as 23.1^c × 10^−6. The “Relative survival (%)” value (TK6 cells [4]; [19]) was 66.9%, the “TK gene MF” value (TK6 cells [4]; [19]) was 44.2^c × 10^−6 and the “%MN frequency with hamster liver S9” value (TK6 cells [5]) was “induced MN”.
With `CC(C)N(CC(O)COc1cccc2ccccc12)N=O` (stereo not drawn) [NNP, N-nitroso propranolol] the “HPRT gene MF” value ([1]; 0.0625 μM, no S9) was 4.5^c × 10^−6, the “TK gene MF” value ([1]; 0.0625 μM, no S9) was 13.2 × 10^−6 and the “HPRT gene MF” value ([1]; 0.125 μM, no S9) was 6.5^c × 10^−6. For the same compound, the “TK gene MF” value ([1]; 0.125 μM, no S9) was 18.6^c × 10^−6, the “HPRT gene MF” value ([1]; 0.5 μM, no S9) was 23.0^c × 10^−6 and the “TK gene MF” value ([1]; 0.5 μM, no S9) was 28.5^c × 10^−6. The “Effect on %MN and cytotoxicity” value [6] was “no effect”, the “Lowest concentration that induced positive responses (Comet)” value (2D HepaRG cells) was 50 µM and the “DNA fragmentation and unscheduled DNA synthesis (UDS)” value [7] was “concentration-dependent increase”. The “Mutagenic response in the Ames test (overall)” value (“Mutagenic response” below) (TA100; [20]) was “positive mutagenic responses”, the BMD50L (TA100; [21]) was 5.9 μg/plate and the BMD50U (TA100; [21]) was 21.1 μg/plate. For the same compound, the BMD50L (TA100; [22]) was 14.1 μg/plate, the BMD50U (TA100; [22]) was 34.4 μg/plate and the BMD50L (TA100; [23]) was “Negative”. The BMD50L (TA100; [24]) was “Negative”, the BMD50L (TA100; [25]) was 7.3 μg/plate and the BMD50U (TA100; [25]) was 19.9 μg/plate. The BMD50L (TA100; [26]) was 24.7 μg/plate, the BMD50U (TA100; [26]) was 62.2 μg/plate and the BMD50L (TA100; [27]) was “Negative”. For the same compound, the BMD50L (TA100; [28]) was “Negative”, the BMD50L (TA100; [29]) was “Negative” and the BMD50L (TA100; [30]) was “Negative”. The “Lowest concentration causing a statistically significant increase in %MN” value [8] was 0.0625 µM, the “Concentrations with considerable toxicity in the Ames test” value (tester strains) was 100–500 μg/plate and the “Effect on %MN and cytotoxicity” value [9] was “no effect”. For the same compound, the “DNA fragmentation and unscheduled DNA synthesis (UDS)” value (primary rat hepatocytes) was “concentration-dependent increase”, the “Mutagenic response” value (TA1537) was “negative” and the “Mutagenicity in the Ames test” value [10] was “negative”. The “Effect on %MN and cytotoxicity” value [11] was “no effect”, the “Mutagenic response” value (TA1535; [20]) was “positive mutagenic responses” and the BMD50L (TA1535; [21]) was 0.9 μg/plate. The BMD50U (TA1535; [21]) was 3.4 μg/plate, the BMD50L (TA1535; [22]) was 2.1 μg/plate and the BMD50U (TA1535; [22]) was 6.5 μg/plate. The BMD50L (TA1535; [23]) was 36.1 μg/plate, the BMD50U (TA1535; [23]) was 108.0 μg/plate and the BMD50L (TA1535; [24]) was “Negative”. The BMD50L (TA1535; [25]) was 2.3 μg/plate, the BMD50U (TA1535; [25]) was 7.7 μg/plate and the BMD50L (TA1535; [26]) was 2.5 μg/plate. For the same compound, the BMD50U (TA1535; [26]) was 7.1 μg/plate, the BMD50L (TA1535; [27]) was “Negative” and the BMD50L (TA1535; [28]) was “Negative”. For the same compound, the BMD50L (TA1535; [29]) was “Negative”, the BMD50L (TA1535; [30]) was “Negative” and the “Cytotoxicity or MN formation” value (HepG2 cells) was “did not cause any cytotoxicity or MN formation”. For the same compound, the “Mutations in the Ames test” value [12] was “did not induce mutations”, the “Micronucleus (MN) formation in hepatocytes” value [13] was “induced micronucleus (MN) formation” and the “Mutagenic response” value (TA98; TA98, 0–200 μg/plate, preincubation method) was “mutagenic both in the presence and absence of S9”. The BMD50L (TA98; [31]) was 5.7 μg/plate, the BMD50U (TA98; [31]) was 10.1 μg/plate and the BMD50L (TA98; [32]) was 6.9 μg/plate. For the same compound, the BMD50U (TA98; [32]) was 14.5 μg/plate, the BMD50L (TA98; [33]) was 7.9 μg/plate and the BMD50U (TA98; [33]) was 13.0 μg/plate. The BMD50L (TA98; [34]) was 7.2 μg/plate, the BMD50U (TA98; [34]) was 11.5 μg/plate and the BMD50L (TA98; [35]) was 12.8 μg/plate. For the same compound, the BMD50U (TA98; [35]) was 21.4 μg/plate, the BMD50L (TA98; [36]) was 18.3 μg/plate and the BMD50U (TA98; [36]) was 30.3 μg/plate. It also gave a BMD50L (TA98; [37]) of 16.2 μg/plate, a BMD50U (TA98; [37]) of 27.0 μg/plate and a BMD50L (TA98; [38]) of 22.4 μg/plate. It also gave a BMD50U (TA98; [38]) of 36.8 μg/plate, a BMD50L (TA98; [39]) of 9.8 μg/plate and a BMD50U (TA98; [39]) of 24.7 μg/plate. For the same compound, the BMD50L (TA98; [40]) was 9.3 μg/plate, the BMD50U (TA98; [40]) was 15.4 μg/plate and the “Solvent effect on mutagenicity in TA98” value (TA98; dissolved in acetone, methanol, or DMSO) was “very similar mutational responses”. The “HPRT gene MF” value (TK6 cells [4]; [41]) was 4.2^c × 10^−6, the “TK gene MF” value (TK6 cells [4]; [41]) was 15.5^c × 10^−6 and the “HPRT gene MF” value (TK6 cells [4]; [19]) was 7.0^c × 10^−6. The “TK gene MF” value (TK6 cells [4]; [19]) was 21.8^c × 10^−6, the “HPRT gene MF” value (TK6 cells [4]; [42]) was 3.2^c × 10^−6 and the “TK gene MF” value (TK6 cells [4]; [42]) was 17.8^c × 10^−6. For the same compound, the “HPRT gene MF” value (TK6 cells [4]; [43]) was 2.6^c × 10^−6, the “TK gene MF” value (TK6 cells [4]; [43]) was 16.5^c × 10^−6 and the “Concentrations producing overt cytotoxicity” value (TK6 cells [4]; preliminary concentration range-finding study, 1% hamster liver S9, 4 h) was at least 400 µM. For the same compound, the “%MN frequency with hamster liver S9” value (TK6 cells [5]) was “concentration-dependent increase”, the “Cytotoxicity after metabolic activation by hamster liver S9” value (TK6 cells [5]; 4-h and 24-h treatments) was “displayed cytotoxicity” and the “Effect on %MN and cytotoxicity” value (TK6 cells [5]; non-CYP-transduced TK6 cells, up to 10 μM, 24 h) was “no effect”. The “MN formation over vehicle controls” value (TK6 cells [5]; without exogenous metabolism, up to 100 μM, 24 h) was “did not result in any increase in MN formation”, the “Effect on %MN and cytotoxicity” value [14] was “no effect” and the “Effect on %MN and cytotoxicity” value [15] was “no effect”. The “Lowest concentration that induced positive responses (Comet)” value (3D HepaRG spheroids) was 25 µM, the “Nuclear P53” value [16] was “only caused increases in nuclear P53 after 24 h” and the “Mutagenic response” value (WP2 uvrA (pKM101)) was “negative”. For the same compound, the “%MN” value [17] was “concentration-dependent increase”, the “Lowest observed adverse effect level (LOAEL) for %MN” value [17] was 2 µM and the γH2A.X (TK6 cells [18]; 4-h treatment with 2% hamster S9) was “concentration-dependent increase”. The γH2A.X (TK6 cells [18]; 24-h treatment with 0.4% hamster S9, 10 μM (highest concentration, cytotoxic)) was “level decreased”, the γH2A.X (TK6 cells [18]; 24-h treatment with 0.4% hamster S9, 2.5 and 5.0 μM) was “induced increases” and the “Phosphorylation of histone H3 (aneugen marker)” value (TK6 cells [18]; data not shown) was “did not increase”. The γH2A.X fluorescence (TK6 cells [18]; without S9) was “did not induce any increase” and the “γH2A.X compared to the vehicle control” value (TK6 cells [18]; without S9, 100 μM) was “statistically significant decrease”.

Reference: paper PMC11393638 (Regulatory toxicology and pharmacology : RTP, 2023)
